Laboratory results as given in patent publication US7915199B1, “Herbicidal composition” (Syngenta Crop Protection, Inc., priority 1999, dated 2011).

First: CCc1cc(C)cc(C)c1-c1c(OC(=O)C(C)(C)C)n2n(c1=O)CCOCC2
Second: Cc1cc(C)c(-c2c(OC(=O)C(C)(C)C)n3n(c2=O)CCOCC3)c(C(C)C)c1
The melting point of the first is lower: 110 to 113 °C for the first, 148 to 151 °C for the second.

Compared with COc1cc(C)cc(Br)c1-c1c(O)n2n(c1=O)CCOCC2, COc1cc(C)cc(Br)c1-c1c(OC(=O)C(C)(C)C)n2n(c1=O)CCOCC2 is lower in melting point: 217 to 219 °C for the first, 173 to 175 °C for the second.

Compared with Cc1cc(C)c(-c2c(O)n3n(c2=O)CCOCC3)c(C(C)C)c1, CCc1cc(C)cc(C)c1-c1c(O)n2n(c1=O)CCOCC2 is lower in melting point: 214 to 216 °C for the first, 182 to 185 °C for the second.

CCOC(=O)Oc1c(-c2c(CC)cc(C)cc2CC)c(=O)n2n1CCOCC2 showed a melting point of 114 to 116 °C.
